Data on 15 molecules can be found in patent publication US20260146035A1, “FUSED BICYCLIC COMPOUNDS AND THEIR USE AS MER AND AXL INHIBITORS” (DONG-A ST CO., LTD., priority 2022, published 2026).

Molecules are shown by their SMILES. pIC50: −log10 of the molar value.

For one assay, the target named is T1, human TYRO3 (455-end) (Homo sapiens, UniProt Q06418).
T1 construct: TYRO3 (455-end); purchased SignalChem, Canada
T1 sequence (Q06418 455-890 limits assumed): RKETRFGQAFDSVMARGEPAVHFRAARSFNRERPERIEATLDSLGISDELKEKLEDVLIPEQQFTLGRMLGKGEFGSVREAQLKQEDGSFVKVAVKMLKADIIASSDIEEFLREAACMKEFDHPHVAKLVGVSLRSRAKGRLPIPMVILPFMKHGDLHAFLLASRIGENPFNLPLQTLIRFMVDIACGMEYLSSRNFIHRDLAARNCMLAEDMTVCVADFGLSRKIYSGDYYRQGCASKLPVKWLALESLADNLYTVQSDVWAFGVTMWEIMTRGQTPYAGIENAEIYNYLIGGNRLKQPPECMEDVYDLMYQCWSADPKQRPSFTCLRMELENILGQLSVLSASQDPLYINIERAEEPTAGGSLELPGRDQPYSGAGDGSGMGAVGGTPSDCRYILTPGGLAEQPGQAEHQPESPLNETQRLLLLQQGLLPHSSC
In words: HTRF kinase activity biochemical assay, TYRO3. To be noted: 10 μM ATP, 30 minutes pre-incubation; read-out: HTRF TYRO IC50.

The target of a further assay is T2, human MER (528-end) (Homo sapiens, UniProt Q12866).
T2 construct: human MER (528-end); purchased Camnabio, Japan
T2 sequence (Q12866 528-999 limits assumed): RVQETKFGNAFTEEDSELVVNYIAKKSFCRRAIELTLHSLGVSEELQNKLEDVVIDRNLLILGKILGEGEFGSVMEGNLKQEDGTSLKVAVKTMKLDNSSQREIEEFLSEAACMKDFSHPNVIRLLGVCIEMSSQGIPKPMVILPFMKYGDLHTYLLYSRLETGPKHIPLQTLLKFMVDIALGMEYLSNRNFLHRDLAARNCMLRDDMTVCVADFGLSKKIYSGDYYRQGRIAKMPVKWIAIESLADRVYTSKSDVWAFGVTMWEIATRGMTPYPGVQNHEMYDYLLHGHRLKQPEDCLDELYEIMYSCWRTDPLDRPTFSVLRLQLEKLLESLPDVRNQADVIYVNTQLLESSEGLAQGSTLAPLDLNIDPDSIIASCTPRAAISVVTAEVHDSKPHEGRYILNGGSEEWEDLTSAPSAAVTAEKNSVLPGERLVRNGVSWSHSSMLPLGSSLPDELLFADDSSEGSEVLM
In words: HTRF kinase activity biochemical assay, MER. To be noted: 10 μM ATP, 30 minutes pre-incubation; read-out: HTRF MERTK IC50. (TR-FRET usually uses a lanthanide donor and a delayed reading to cut background.)

In another assay the target is T3, human AXL (473-end) (Homo sapiens, UniProt P30530).
T3 construct: human AXL (473-end); purchased SignalChem, Canada
T3 sequence (P30530 473-894 limits assumed): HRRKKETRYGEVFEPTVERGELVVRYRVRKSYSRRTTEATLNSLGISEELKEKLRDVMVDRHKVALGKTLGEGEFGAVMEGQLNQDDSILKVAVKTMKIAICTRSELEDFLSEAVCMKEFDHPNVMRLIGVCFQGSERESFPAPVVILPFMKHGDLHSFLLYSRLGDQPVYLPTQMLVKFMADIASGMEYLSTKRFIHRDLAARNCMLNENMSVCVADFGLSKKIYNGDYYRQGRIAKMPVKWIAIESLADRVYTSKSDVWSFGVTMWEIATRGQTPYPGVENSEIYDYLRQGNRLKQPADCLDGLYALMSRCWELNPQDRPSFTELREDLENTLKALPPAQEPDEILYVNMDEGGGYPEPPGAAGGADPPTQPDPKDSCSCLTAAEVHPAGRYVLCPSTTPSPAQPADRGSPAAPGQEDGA
Briefly: HTRF kinase activity biochemical assay, AXL. The conditions noted are these: 10 μM ATP, 30 minutes pre-incubation.

For `Cn1cc(-c2cnc(N)c(C(=O)N[C@H]3CCC[C@@H]3OCc3ccc(-c4ccc5c(c4)CCCC5N4CCNCC4)cc3)c2)cn1` (stereo partly drawn) [Example 122, 2-amino-5-(1-methyl-1H-pyrazol-4-yl)-N-[(1S,2S)-2-({4-[5-(piperazin-1-yl)-5,6,7,8-tetrahydronaphthalen-2-yl]phenyl}methoxy)cyclopentyl]pyridine-3-carboxamide], the pIC50 (as a rule, the negative decadic logarithm of the IC50, by convention in mol/L) is 7.00 to 8.00 at human TYRO3 (455-end), > 8.00 on human MER (528-end) and > 8.00 against human AXL (473-end).

On to `Nc1ncc(-c2cncc(F)c2)cc1C(=O)N[C@H]1CCC[C@@H]1OCc1ccc(-c2ccc3c(c2)CCCC3N2CCN(CCO)CC2)cc1` (stereo partly drawn) [Example 123, 6-amino-5′-fluoro-N-{(1S,2S)-2-[(4-{5-[4-(2-hydroxyethyl)piperazin-1-yl]-5,6,7,8-tetrahydronaphthalen-2-yl}phenyl)methoxy]cyclopentyl}[3,3′-bipyridine]-5-carboxamide], for which the pIC50 on human TYRO3 (455-end) is 7.00 to 8.00; on human MER (528-end), > 8.00; at human AXL (473-end) it was > 8.00.

Consider `Nc1ncc(C(F)(F)F)cc1C(=O)N[C@H]1CCC[C@@H]1OCc1ccc(-c2ccc3c(c2)CCCC3N2CCN(CCO)CC2)cc1` (stereo partly drawn) [Example 124, 2-amino-N-{(1S,2S)-2-[(4-{5-[4-(2-hydroxyethyl)piperazin-1-yl]-5,6,7,8-tetrahydronaphthalen-2-yl}phenyl)methoxy]cyclopentyl}-5-(trifluoromethyl)pyridine-3-carboxamide], for which the pIC50 on human TYRO3 (455-end) was 6.00 to 7.00; on human MER (528-end) it was > 8.00; on human AXL (473-end), > 8.00.

As for `CN(CCC(O)CO)C1CCc2cc(-c3ccc(CO[C@H]4CCC[C@@H]4NC(=O)c4cc(-c5cnn(C)c5)cnc4N)cc3)ccc21` (stereo partly drawn) [Example 125, 2-amino-N-{(1S,2S)-2-[(4-{1-[(3,4-dihydroxybutyl)(methyl)amino]-2,3-dihydro-1H-inden-5-yl}phenyl)methoxy]cyclopentyl}-5-(1-methyl-1H-pyrazol-4-yl)pyridine-3-carboxamide], the pIC50 at human TYRO3 (455-end) is < 6.00; on human MER (528-end), 7.00 to 8.00; against human AXL (473-end) it was 7.00 to 8.00.

As to `CN(CCC(O)CO)C1CCc2cc(-c3ccc(CO[C@H]4CCC[C@@H]4NC(=O)c4cc(-c5ccc(F)nc5)cnc4N)cc3)ccc21` (stereo partly drawn) [Example 126, 6-amino-N-{(1S,2S)-2-[(4-{1-[(3,4-dihydroxybutyl)(methyl)amino]-2,3-dihydro-1H-inden-5-yl}phenyl)methoxy]cyclopentyl}-6′-fluoro[3,3′-bipyridine]-5-carboxamide], the pIC50 is < 6.00 at human TYRO3 (455-end), 7.00 to 8.00 at human MER (528-end) and 6.00 to 7.00 at human AXL (473-end).

Take `CN(CCC(O)CO)C1CCc2cc(-c3ccc(CO[C@H]4CCC[C@@H]4NC(=O)c4cc(-c5cccnc5F)cnc4N)cc3)ccc21` (stereo partly drawn) [Example 127, 6-amino-N-{(1S,2S)-2-[(4-{1-[(3,4-dihydroxybutyl)(methyl)amino]-2,3-dihydro-1H-inden-5-yl}phenyl)methoxy]cyclopentyl}-2′-fluoro[3,3′-bipyridine]-5-carboxamide]: the pIC50 at human TYRO3 (455-end) was < 6.00; on human MER (528-end), 7.00 to 8.00; against human AXL (473-end), 6.00 to 7.00.

For the molecule `Cn1cc(-c2cnc(N)c(C(=O)N[C@H]3CCC[C@@H]3OCc3ccc(-c4ccc5c(c4)CC[C@@H]5N4CCN(C(CO)CO)CC4)cc3)c2)cn1` [Example 128, 2-amino-N-{(1S,2S)-2-[(4-{(1S)-1-[4-(1,3-dihydroxypropan-2-yl)piperazin-1-yl]-2,3-dihydro-1H-inden-5-yl}phenyl)methoxy]cyclopentyl}-5-(1-methyl-1H-pyrazol-4-yl)pyridine-3-carboxamide], the figures for the negative logarithm of the IC50 (pIC50) on human TYRO3 (455-end), on human MER (528-end) and on human AXL (473-end) were 6.00 to 7.00, > 8.00 and > 8.00, respectively.

`Nc1ncc(-c2cccnc2F)cc1C(=O)N[C@H]1CCC[C@@H]1OCc1ccc(-c2ccc3c(c2)CC[C@@H]3N2CCN(C(CO)CO)CC2)cc1` [Example 129, 6-amino-N-{(1S,2S)-2-[(4-{(1S)-1-[4-(1,3-dihydroxypropan-2-yl)piperazin-1-yl]-2,3-dihydro-1H-inden-5-yl}phenyl)methoxy]cyclopentyl}-2′-fluoro[3,3′-bipyridine]-5-carboxamide]: the pIC50 on human TYRO3 (455-end) was < 6.00; on human MER (528-end) it was > 8.00; against human AXL (473-end) it was > 8.00.

Regarding `CC1(C)CC(N2CCN(CCO)CC2)c2ccc(-c3ccc(CO[C@H]4CCC[C@@H]4NC(=O)c4cc(C(F)(F)F)cnc4N)cc3)cc21` (stereo partly drawn) [Example 130, 2-amino-N-{(1S,2S)-2-[(4-{1-[4-(2-hydroxyethyl)piperazin-1-yl]-3,3-dimethyl-2,3-dihydro-1H-inden-5-yl}phenyl)methoxy]cyclopentyl}-5-(trifluoromethyl)pyridine-3-carboxamide], the pIC50 on human TYRO3 (455-end) was 6.00 to 7.00; at human MER (528-end), > 8.00; against human AXL (473-end) it was > 8.00.

Regarding `Nc1ncc(C(F)(F)F)cc1C(=O)N[C@H]1CCC[C@@H]1OCc1ccc(-c2ccc3c(c2)CC[C@@H]3N2CCN(CCO)CC2)cc1` [Example 131, 2-amino-N-{(1S,2S)-2-[(4-{(1S)-1-[4-(2-hydroxyethyl)piperazin-1-yl]-2,3-dihydro-1H-inden-5-yl}phenyl)methoxy]cyclopentyl}-5-(trifluoromethyl)pyridine-3-carboxamide], the negative logarithm of the IC50 (pIC50) is 6.00 to 7.00 at human TYRO3 (455-end), > 8.00 at human MER (528-end) and > 8.00 against human AXL (473-end).

`Nc1ncc(-c2cncc(F)c2)cc1C(=O)N[C@H]1CCC[C@@H]1OCc1ccc(-c2ccc3c(c2)OCCC3N2CCN(CCO)CC2)cc1` (stereo partly drawn) [Example 132, 6-amino-5′-fluoro-N-{(1S,2S)-2-[(4-{4-[4-(2-hydroxyethyl)piperazin-1-yl]-3,4-dihydro-2H-1-benzopyran-7-yl}phenyl)methoxy]cyclopentyl}[3,3′-bipyridine]-5-carboxamide]: the pIC50 was 6.00 to 7.00 at human TYRO3 (455-end), > 8.00 on human MER (528-end) and > 8.00 on human AXL (473-end).

For the molecule `Nc1ncc(C(F)(F)F)cc1C(=O)N[C@H]1CCC[C@@H]1OCc1ccc(-c2ccc3c(c2)OCCC3N2CCN(CCO)CC2)cc1` (stereo partly drawn) [Example 133, 2-amino-N-{(1S,2S)-2-[(4-{4-[4-(2-hydroxyethyl)piperazin-1-yl]-3,4-dihydro-2H-1-benzopyran-7-yl}phenyl)methoxy]cyclopentyl}-5-(trifluoromethyl)pyridine-3-carboxamide], the pIC50 on human TYRO3 (455-end) is < 6.00; at human MER (528-end) it was > 8.00; against human AXL (473-end), > 8.00.

As to `Nc1ncc(-c2cccnc2F)cc1C(=O)N[C@H]1CCC[C@@H]1OCc1ccc(-c2ccc3c(c2)OCCC3N2CCN(CCO)CC2)cc1` (stereo partly drawn) [Example 134, 6-amino-2′-fluoro-N-{(1S,2S)-2-[(4-{4-[4-(2-hydroxyethyl)piperazin-1-yl]-3,4-dihydro-2H-1-benzopyran-7-yl}phenyl)methoxy]cyclopentyl}[3,3′-bipyridine]-5-carboxamide], the values for the pIC50 on human TYRO3 (455-end), on human MER (528-end) and against human AXL (473-end) were 6.00 to 7.00, > 8.00 and > 8.00, respectively.

For the molecule `CC1(C)C[C@@H](N2CCN(CCO)CC2)c2ccc(-c3ccc(CO[C@H]4CCC[C@@H]4NC(=O)c4cc(-c5cccnc5F)cnc4N)cc3)cc21` [Example 135, 6-amino-2′-fluoro-N-{(1S,2S)-2-[(4-{(1R)-1-[4-(2-hydroxyethyl)piperazin-1-yl]-3,3-dimethyl-2,3-dihydro-1H-inden-5-yl}phenyl)methoxy]cyclopentyl}[3,3′-bipyridine]-5-carboxamide], the pIC50 on human TYRO3 (455-end) is 6.00 to 7.00; at human MER (528-end) it was > 8.00; on human AXL (473-end) it was > 8.00.

Consider `COc1ccnc(N)c1C(=O)N[C@H]1CCC[C@@H]1OCc1ccc(-c2ccc3c(c2)C(C)(C)CC3N2CCN(CCO)CC2)cc1` (stereo partly drawn) [Example 136, 2-amino-N-{(1S,2S)-2-[(4-{1-[4-(2-hydroxyethyl)piperazin-1-yl]-3,3-dimethyl-2,3-dihydro-1H-inden-5-yl}phenyl)methoxy]cyclopentyl}-4-methoxypyridine-3-carboxamide], for which the pIC50 at human TYRO3 (455-end) is 6.00 to 7.00; at human MER (528-end), > 8.00; against human AXL (473-end), > 8.00.
